{"source": "patent US20240307487A1", "about": "(priority 2020, published 2024)", "key": {"[1]": {"test_system": "parainfluenza virus 3"}, "[2]": {"test_system": "SARS-CoV-2"}, "[3]": {"test_system": "rhinovirus"}, "[4]": {"target": "MERS-CoV S protein (Middle East respiratory syndrome-related coronavirus, UniProt K9N5Q8)", "sequence (K9N5Q8 18-1353 limits assumed)": "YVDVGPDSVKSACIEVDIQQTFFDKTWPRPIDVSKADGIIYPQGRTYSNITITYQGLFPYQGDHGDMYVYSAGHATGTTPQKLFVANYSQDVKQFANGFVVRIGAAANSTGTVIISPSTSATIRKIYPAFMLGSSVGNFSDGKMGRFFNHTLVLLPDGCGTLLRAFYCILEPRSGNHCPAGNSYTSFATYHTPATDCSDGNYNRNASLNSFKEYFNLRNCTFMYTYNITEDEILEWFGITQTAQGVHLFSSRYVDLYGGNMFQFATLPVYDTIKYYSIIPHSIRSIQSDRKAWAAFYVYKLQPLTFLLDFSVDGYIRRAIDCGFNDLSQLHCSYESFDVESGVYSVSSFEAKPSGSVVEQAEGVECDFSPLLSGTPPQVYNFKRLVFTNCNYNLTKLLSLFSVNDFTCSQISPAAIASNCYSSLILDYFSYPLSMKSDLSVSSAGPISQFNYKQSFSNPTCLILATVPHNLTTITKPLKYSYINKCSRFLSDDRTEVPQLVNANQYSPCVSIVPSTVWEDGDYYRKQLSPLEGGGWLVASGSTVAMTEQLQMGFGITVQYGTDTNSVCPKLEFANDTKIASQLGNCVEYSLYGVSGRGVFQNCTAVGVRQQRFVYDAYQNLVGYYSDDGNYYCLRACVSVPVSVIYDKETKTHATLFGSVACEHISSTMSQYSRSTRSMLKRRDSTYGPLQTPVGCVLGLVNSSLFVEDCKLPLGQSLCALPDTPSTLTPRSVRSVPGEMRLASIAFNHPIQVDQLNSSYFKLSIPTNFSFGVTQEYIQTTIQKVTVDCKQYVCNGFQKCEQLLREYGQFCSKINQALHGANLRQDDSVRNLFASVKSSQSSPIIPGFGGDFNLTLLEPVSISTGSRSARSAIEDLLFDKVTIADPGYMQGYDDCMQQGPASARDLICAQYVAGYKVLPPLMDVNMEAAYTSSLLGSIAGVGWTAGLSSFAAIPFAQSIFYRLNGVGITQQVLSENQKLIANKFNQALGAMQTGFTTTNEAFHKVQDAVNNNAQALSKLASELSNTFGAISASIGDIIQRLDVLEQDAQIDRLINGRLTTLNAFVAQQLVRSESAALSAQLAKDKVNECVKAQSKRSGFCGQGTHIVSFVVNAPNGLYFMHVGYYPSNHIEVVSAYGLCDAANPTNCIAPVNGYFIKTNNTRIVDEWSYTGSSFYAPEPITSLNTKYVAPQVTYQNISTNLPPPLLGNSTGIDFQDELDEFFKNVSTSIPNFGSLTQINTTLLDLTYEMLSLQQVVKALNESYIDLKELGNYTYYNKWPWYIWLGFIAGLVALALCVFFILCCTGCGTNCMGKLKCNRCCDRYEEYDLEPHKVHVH"}, "[5]": {"test_system": "SARS-CoV-2", "format": "binding"}, "[6]": {"test_system": "A(H1N1)pdm09 virus", "format": "cell-based"}, "[7]": {"test_system": "A(H7N9) virus"}, "[8]": {"test_system": "MERS-CoV", "format": "binding"}, "[9]": {"test_system": "endosomal acidification in MDCK cells", "format": "cell-based, canine"}, "[10]": {"test": "in vitro", "conditions": "human"}, "[11]": {"test_system": "MERS-CoV"}, "[12]": {"test_system": "parainfluenza 3 (Para-3)", "format": "cell-based", "conditions": "24 h post-infection"}, "[13]": {"test_system": "rhinovirus", "format": "binding", "conditions": "peptide coated on ELISA plate, bound virus by RT-qPCR"}, "[14]": {"test_system": "rhinovirus", "remark": "listed apart in the source"}, "[15]": {"test_system": "virus-host endosomal acidification", "format": "cell-based"}, "[16]": {"test": "in vitro", "conditions": "dog"}, "[17]": {"target": "H1N1 HA1 protein (Influenza A virus, UniProt C3W5S1)", "sequence (C3W5S1 18-344 limits assumed)": "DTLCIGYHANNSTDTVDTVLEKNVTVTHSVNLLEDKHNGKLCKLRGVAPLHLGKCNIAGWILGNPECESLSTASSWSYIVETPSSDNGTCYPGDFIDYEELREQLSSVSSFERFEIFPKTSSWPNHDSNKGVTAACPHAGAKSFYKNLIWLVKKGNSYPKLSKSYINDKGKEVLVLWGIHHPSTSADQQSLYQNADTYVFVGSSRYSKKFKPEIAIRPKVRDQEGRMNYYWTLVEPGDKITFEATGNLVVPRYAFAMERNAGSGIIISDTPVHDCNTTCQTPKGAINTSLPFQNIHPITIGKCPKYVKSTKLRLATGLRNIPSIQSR"}, "[18]": {"test": "in vitro", "conditions": "African green monkey"}, "[19]": {"test_system": "A(H7N9) virus", "format": "binding"}, "[20]": {"test_system": "SARS-CoV", "format": "binding"}, "[21]": {"test_system": "A(H1N1)pdm09 virus", "format": "binding"}, "[22]": {"test_system": "SARS-CoV-2", "test": "microbe, parasite or virus in culture", "format": "cell-based"}, "[23]": {"conditions": "in vivo; cited from earlier work"}, "[24]": {"test_system": "spike-ACE2 mediated cell fusion", "format": "cell-based, human"}, "[25]": {"test_system": "SARS-CoV", "parameters": "species or system mice", "conditions": "in vivo"}, "[26]": {"test_system": "SARS-CoV-2", "conditions": "cited from earlier work"}, "[27]": {"test_system": "SARS-CoV-2", "conditions": "cited from earlier work", "remark": "listed apart in the source"}, "[28]": {"test_system": "SARS-CoV-2", "parameters": "species or system hamsters", "conditions": "in vivo"}, "[29]": {"test_system": "SARS-CoV-2", "format": "cell-based"}, "[30]": {"test_system": "SARS-CoV", "format": "cell-based"}}, "note": "Where a name gives a salt, the structure may show the parent alone. Read-outs that look alike come from different tables or passages of the source. Where a SMILES comes first, the peptide text is derived from it.", "data": [{"smiles": "CC[C@H](C)[C@H](NC(=O)[C@H](C)NC(=O)CNC(=O)[C@@H](N)CC(N)=O)C(=O)N[C@@H](CS)C(=O)N[C@@H](Cc1c[nH]c2ccccc12)C(=O)NCC(=O)N1CCC[C@H]1C(=O)N[C@@H](CS)C(=O)N1CCC[C@H]1C(=O)N[C@H](C(=O)N[C@@H](C)C(=O)N[C@@H](Cc1ccccc1)C(=O)N[C@@H](CCCNC(=N)N)C(=O)N[C@@H](CCC(N)=O)C(=O)N[C@H](C(=O)NCC(=O)N[C@@H](CC(N)=O)C(=O)N[C@@H](CS)C(=O)NCC(=O)N[C@@H](Cc1c[nH]cn1)C(=O)N[C@@H](Cc1ccccc1)C(=O)N[C@@H](CCCCN)C(=O)N[C@H](C(=O)N[C@@H](CCCNC(=N)N)C(=O)N[C@@H](CS)C(=O)N[C@@H](CS)C(=O)N[C@@H](CCCCN)C(=O)N[C@H](C(=O)N[C@@H](CCCNC(=N)N)C(=O)O)[C@@H](C)CC)C(C)C)[C@@H](C)CC)[C@@H](C)O", "note": "[P9, reference compound]", "values": [{"measurement": "IC50 against parainfluenza virus 3", "setting": "[1]", "result": "> 25.0", "unit": "µg/mL"}, {"measurement": "IC50 against SARS-CoV-2", "setting": "[2]", "result": 2.4, "unit": "µg/mL"}]}, {"smiles": "CC[C@H](C)[C@H](NC(=O)[C@H](C)NC(=O)CNC(=O)[C@@H](N)CC(N)=O)C(=O)N[C@@H](CS)C(=O)N[C@@H](Cc1c[nH]c2ccccc12)C(=O)NCC(=O)N1CCC[C@H]1C(=O)N[C@@H](CS)C(=O)N1CCC[C@H]1C(=O)N[C@H](C(=O)N[C@@H](C)C(=O)N[C@@H](Cc1ccccc1)C(=O)N[C@@H](CCCNC(=N)N)C(=O)N[C@@H](CCC(N)=O)C(=O)N[C@H](C(=O)NCC(=O)N[C@@H](CC(N)=O)C(=O)N[C@@H](CS)C(=O)NCC(=O)N[C@@H](CCCNC(=N)N)C(=O)N[C@@H](Cc1ccccc1)C(=O)N[C@@H](CCCNC(=N)N)C(=O)N[C@H](C(=O)N[C@@H](CCCNC(=N)N)C(=O)N[C@@H](CS)C(=O)N[C@@H](CS)C(=O)N[C@@H](CCCNC(=N)N)C(=O)N[C@H](C(=O)N[C@@H](CCCNC(=N)N)C(=O)O)[C@@H](C)CC)C(C)C)[C@@H](C)CC)[C@@H](C)O", "note": "[P9R] (H-NGAICWGPCPTAFRQIGNCGRFRVRCCRIR-OH)", "values": [{"measurement": "inhibition of viral replication, rhinovirus", "setting": "[3]", "result": "> 20", "unit": "fold"}, {"measurement": "binding to viral proteins: MERS-CoV S protein", "setting": "[4]", "result": "could also bind"}, {"measurement": "binding to SARS-CoV-2", "setting": "[5]", "result": "could efficiently bind"}, {"measurement": "inhibition against A(H1N1)pdm09 virus compared with P9", "setting": "[6]", "result": "significantly stronger inhibition"}, {"measurement": "inhibition against A(H7N9) virus compared with P9", "setting": "[7]", "result": "significantly stronger inhibition"}, {"measurement": "binding to MERS-CoV", "setting": "[8]", "result": "could also bind"}, {"measurement": "inhibition of endosomal acidification (no-virus endosomes)", "setting": "[9]", "result": "could more significantly inhibit endosomal acidification"}, {"measurement": "CC50 at 24 h", "setting": "[10]", "result": "> 300", "unit": "µg/mL"}, {"measurement": "inhibition against MERS-CoV compared with P9", "setting": "[11]", "result": "significantly stronger inhibition"}, {"measurement": "parainfluenza 3 viral RNA in LLC-MK2 cells", "setting": "[12]", "result": "inhibits parainfluenza 3 in LLC-MK2 cells"}, {"measurement": "binding to rhinovirus", "setting": "[13]", "result": "could also bind"}, {"measurement": "inhibition against rhinovirus compared with P9", "setting": "[14]", "result": "significantly stronger inhibition"}, {"measurement": "inhibition of virus-host endosomal acidification", "setting": "[15]", "result": "could efficiently inhibit"}, {"measurement": "CC50 at 24 h", "setting": "[16]", "result": "> 300", "unit": "µg/mL"}, {"measurement": "binding to viral proteins: H1N1 HA1 protein", "setting": "[17]", "result": "could also bind"}, {"measurement": "CC50 at 24 h", "setting": "[18]", "result": "> 300", "unit": "µg/mL"}, {"measurement": "binding to A(H7N9) virus", "setting": "[19]", "result": "could also bind"}, {"measurement": "IC50 against SARS-CoV-2", "setting": "[2]", "result": 0.9, "unit": "µg/mL"}, {"measurement": "binding to SARS-CoV", "setting": "[20]", "result": "could also bind"}, {"measurement": "binding to A(H1N1)pdm09 virus", "setting": "[21]", "result": "could efficiently bind"}]}, {"smiles": "CCOC(=O)c1c(CSc2ccccc2)n(C)c2cc(Br)c(O)c(CN(C)C)c12", "note": "[arbidol]", "values": [{"measurement": "IC50", "setting": "[22]; Severe acute respiratory syndrome coronavirus 2, Vero C1008, 24 h, read-out: normal IC50 of arbidol against SARS-CoV-2", "result": 3.6, "unit": "µg/mL"}, {"measurement": "peak serum concentration", "setting": "[23]", "result": "lower than 2 μg ml-1"}]}, {"smiles": "CO/C1=C\\C(C)=C\\[C@@H](C)[C@@H](O)[C@@H](C)C/C(C)=C/C=C/[C@H](OC)[C@@H]([C@@H](C)[C@@H](O)[C@H](C)[C@@]2(O)C[C@@H](O)[C@H](C)[C@@H](C(C)C)O2)OC1=O", "note": "[bafilomycin A1, reference compound]", "values": [{"measurement": "spike-ACE2 mediated cell membrane fusion", "setting": "[24]", "result": "could inhibit spike-ACE2 mediated cell membrane fusion"}, {"measurement": "inhibition of virus-host endosomal acidification", "setting": "[15]", "result": "could efficiently inhibit"}]}, {"smiles": "CN(C)C(=O)COC(=O)Cc1ccc(OC(=O)c2ccc(NC(=N)N)cc2)cc1", "note": "[camostat, Camostat mesylate]", "values": [{"measurement": "SARS-CoV replication in mouse lungs", "setting": "[25]", "result": "could not inhibit viral replication"}, {"measurement": "SARS-CoV-2 replication in Calu-3 cells", "setting": "[26]", "result": "could significantly inhibit SARS-CoV-2 replication in Calu-3 cells"}, {"measurement": "SARS-CoV-2 replication in Vero-E6 cells", "setting": "[27]", "result": "could not inhibit SARS-CoV-2 replication"}, {"measurement": "SARS-CoV-2 replication in hamster lungs", "setting": "[28]", "result": "could not significantly inhibit SARS-CoV-2 replication in hamsters"}]}, {"smiles": "CCN(CC)CCCC(C)Nc1ccnc2cc(Cl)ccc12", "note": "(stereo not shown) [chloroquine]", "values": [{"measurement": "SARS-CoV replication in mouse lungs", "setting": "[25]", "result": "could not inhibit SARS-CoV replication in mouse lungs"}, {"measurement": "SARS-CoV-2 replication in Calu-3 cells", "setting": "[29]", "result": "not in Calu-3 cells"}, {"measurement": "SARS-CoV-2 replication in Vero-E6 cells", "setting": "[22]", "result": "could significantly inhibit SARS-CoV-2 replication in Vero-E6 cells"}, {"measurement": "enhancement of antiviral activity of arbidol against SARS-CoV-2", "setting": "[22]", "result": "could significantly enhance the antiviral activity of arbidol"}, {"measurement": "SARS-CoV-2 replication in Calu-3 cells", "setting": "[26]", "result": "did not inhibit SARS-CoV-2 replication in Calu-3 cells"}, {"measurement": "enhancement of antiviral activity of arbidol against SARS-CoV", "setting": "[30]", "result": "could significantly enhance the antiviral activity of arbidol"}, {"measurement": "SARS-CoV-2 replication in hamster lungs", "setting": "[28]", "result": "could not significantly inhibit SARS-CoV-2 replication in hamsters"}]}]}
